# From patent US10787446B2 (GENENTECH, INC., priority 2015, dated 2020)
# Molecular target: T1, hNav1.7 and the β1 subunit (Homo sapiens, UniProt Q15858)
# T1 construct: expressed in transfected cells
# Test: Tritiated compound competitive binding to membranes from cells heterologously expressing hNav1.7 and the β1 subunit (LBA)
# Conditions: competition with 100 pM [3H]compound, 18 h, room temperature; IC50 by 4 parameter logistic model
# Summary of the method: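 Membranes were incubated 18 h at room temperature with 100 pM [3H]-labelled NaV1.7 inhibitor and increasing test compound in 100 mM NaCl, 20 mM Tris HCl, pH 7.4. Bound radioligand was filtered on PEI-soaked GF/C, washed, and counted by scintillation. IC50 from a 4-parameter logistic fit of % inhibition.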
# T1 sequence (Q15858 whole entry): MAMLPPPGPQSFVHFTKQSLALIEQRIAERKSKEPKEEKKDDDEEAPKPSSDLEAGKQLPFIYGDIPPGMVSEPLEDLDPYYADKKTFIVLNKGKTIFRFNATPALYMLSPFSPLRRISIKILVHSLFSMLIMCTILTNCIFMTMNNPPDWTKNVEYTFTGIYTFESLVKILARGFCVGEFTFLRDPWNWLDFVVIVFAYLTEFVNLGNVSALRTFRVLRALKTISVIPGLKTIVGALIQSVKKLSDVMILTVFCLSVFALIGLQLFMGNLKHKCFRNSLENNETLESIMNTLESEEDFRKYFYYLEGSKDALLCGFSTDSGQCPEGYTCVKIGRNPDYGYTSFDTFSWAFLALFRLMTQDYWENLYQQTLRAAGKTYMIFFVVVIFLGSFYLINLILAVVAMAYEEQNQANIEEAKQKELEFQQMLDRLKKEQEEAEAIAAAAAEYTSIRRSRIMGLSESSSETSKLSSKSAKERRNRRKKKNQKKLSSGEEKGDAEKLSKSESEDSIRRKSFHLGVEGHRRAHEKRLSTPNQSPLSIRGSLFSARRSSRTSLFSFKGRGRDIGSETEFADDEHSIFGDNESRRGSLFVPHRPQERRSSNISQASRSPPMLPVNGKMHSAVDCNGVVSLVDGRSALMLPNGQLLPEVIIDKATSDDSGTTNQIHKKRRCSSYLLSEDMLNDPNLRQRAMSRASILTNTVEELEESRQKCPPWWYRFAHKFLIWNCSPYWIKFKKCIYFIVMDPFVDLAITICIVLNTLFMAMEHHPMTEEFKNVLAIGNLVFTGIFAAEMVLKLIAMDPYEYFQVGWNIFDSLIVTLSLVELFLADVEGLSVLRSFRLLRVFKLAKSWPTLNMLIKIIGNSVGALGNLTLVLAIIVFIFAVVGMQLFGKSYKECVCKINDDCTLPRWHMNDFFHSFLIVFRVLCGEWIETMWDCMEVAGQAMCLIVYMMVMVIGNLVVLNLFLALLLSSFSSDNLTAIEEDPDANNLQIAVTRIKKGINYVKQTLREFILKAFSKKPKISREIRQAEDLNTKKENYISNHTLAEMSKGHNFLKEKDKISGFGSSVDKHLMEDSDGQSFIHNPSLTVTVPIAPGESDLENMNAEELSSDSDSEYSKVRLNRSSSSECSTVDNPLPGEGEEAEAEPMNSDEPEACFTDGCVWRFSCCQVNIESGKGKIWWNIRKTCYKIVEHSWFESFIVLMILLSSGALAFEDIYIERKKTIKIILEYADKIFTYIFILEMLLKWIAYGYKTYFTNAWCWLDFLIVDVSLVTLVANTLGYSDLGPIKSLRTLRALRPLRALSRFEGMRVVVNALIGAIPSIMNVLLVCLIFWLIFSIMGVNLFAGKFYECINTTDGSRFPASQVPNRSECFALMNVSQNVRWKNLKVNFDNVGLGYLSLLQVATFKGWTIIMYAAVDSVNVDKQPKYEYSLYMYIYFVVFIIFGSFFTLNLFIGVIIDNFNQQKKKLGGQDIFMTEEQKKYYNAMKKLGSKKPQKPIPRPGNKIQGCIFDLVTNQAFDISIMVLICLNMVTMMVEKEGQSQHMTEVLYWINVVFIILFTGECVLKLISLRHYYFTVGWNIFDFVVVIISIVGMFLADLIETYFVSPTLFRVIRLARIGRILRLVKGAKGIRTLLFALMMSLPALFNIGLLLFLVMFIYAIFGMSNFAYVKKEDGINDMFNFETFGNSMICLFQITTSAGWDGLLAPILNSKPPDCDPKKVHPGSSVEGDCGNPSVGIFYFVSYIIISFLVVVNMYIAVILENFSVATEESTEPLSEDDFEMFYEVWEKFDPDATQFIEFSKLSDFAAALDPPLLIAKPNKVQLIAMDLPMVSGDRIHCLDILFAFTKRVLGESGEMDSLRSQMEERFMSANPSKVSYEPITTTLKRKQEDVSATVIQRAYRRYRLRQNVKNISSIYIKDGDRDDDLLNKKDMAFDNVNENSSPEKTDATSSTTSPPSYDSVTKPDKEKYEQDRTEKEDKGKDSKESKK
# T1 sequence (Q07699 19-218 partner): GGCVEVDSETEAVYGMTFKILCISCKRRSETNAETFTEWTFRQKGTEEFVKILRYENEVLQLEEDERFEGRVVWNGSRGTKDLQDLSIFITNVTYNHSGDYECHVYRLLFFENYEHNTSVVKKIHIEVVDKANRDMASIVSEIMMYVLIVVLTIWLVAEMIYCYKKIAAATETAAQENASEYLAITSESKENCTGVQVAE
row,Nav1.7 (LBA),Compound
1,0.0016 µM,"O=S(=O)(Nc1ncns1)c1ccc2c(c1)OCC[C@@H]2N1CC[C@@H](C(F)(F)F)C[C@H]1c1ccc(F)c(F)c1 [Example 106, (S)-4-((2S,4R)-2-(3,4-difluorophenyl)-4-(trifluoromethyl)piperidin-1-yl)-N-(1,2,4-thiadiazol-5-yl)chroman-7-sulfonamide]"
2,2.0 µM,"O=S(=O)(Nc1ncns1)c1ccc2c(c1)OCC[C@@H]2N1CC[C@@H](C(F)(F)F)C[C@@H]1c1ccc(F)c(F)c1 [Example 107, (S)-4-((2R,4R)-2-(3,4-difluorophenyl)-4-(trifluoromethyl)piperidin-1-yl)-N-(1,2,4-thiadiazol-5-yl)chroman-7-sulfonamide]"
3,0.337 µM,"O=S(=O)(Nc1ncns1)c1cc(F)c(CN2CCC3(CC3)C[C@H]2c2ccccc2)cc1F [Example 110, (S)-2,5-difluoro-4-((5-phenyl-6-azaspiro[2.5]octan-6-yl)methyl)-N-(1,2,4-thiadiazol-5-yl)benzenesulfonamide]"
4,4.21 µM,"O=S(=O)(Nc1ncns1)c1cc(F)c(CN2CC[C@H](OC(F)(F)F)C[C@@H]2c2ccccc2)cc1F [Example 112, 2,5-Difluoro-4-(((2R,4S)-2-phenyl-4-(trifluoromethoxy)piperidin-1-yl)methyl)-N-(1,2,4-thiadiazol-5-yl)benzenesulfonamide]"
5,9.65 µM,"O=S(=O)(Nc1ncns1)c1cc(F)c(CN2CC[C@@H](O)C[C@H]2c2ccccc2)cc1F [Example 114, 2,5-Difluoro-4-(((2S,4R)-4-hydroxy-2-phenylpiperidin-1-yl)methyl)-N-(1,2,4-thiadiazol-5-yl)benzenesulfonamide]"
6,2.26 µM,"Nc1[nH]ncc1C1CCCCN1Cc1cc(F)c(S(=O)(=O)Nc2ncns2)cc1F (stereo not shown) [Example 118, 4-((2-(5-Amino-1H-pyrazol-4-yl)piperidin-1-yl)methyl)-2,5-difluoro-N-(1,2,4-thiadiazol-5-yl)benzenesulfonamide]"
7,0.0181 µM,"N#Cc1cc(S(=O)(=O)Nc2ncns2)ccc1CN1CC[C@@H](C(F)(F)F)C[C@H]1c1ccccc1 [Example 119, 3-Cyano-4-(((2S,4R)-2-phenyl-4-(trifluoromethyl)piperidin-1-yl)methyl)-N-(1,2,4-thiadiazol-5-yl)benzenesulfonamide]"
8,0.376 µM,"CN(Cc1ccccc1)[C@H]1CCOc2cc(S(=O)(=O)Nc3ncns3)ccc21 [Example 120, (S)-4-(benzyl(methyl)amino)-N-(1,2,4-thiadiazol-5-yl)chroman-7-sulfonamide]"
9,5.36 µM,"N#CC1CCN([C@H]2CCOc3cc(S(=O)(=O)Nc4ncns4)ccc32)CC1 [Example 147, (S)-4-(4-cyanopiperidine-1-yl)-N-(1,2,4-thiadiazol-5-yl)chromane-7-sulfonamide]"
10,8.6 µM,"CC1(C#N)CCN([C@H]2CCOc3cc(S(=O)(=O)Nc4ncns4)ccc32)CC1 [Example 149, (S)-4-(4-cyano-4-methylpiperidin-1-yl)-N-(1,2,4-thiadiazol-5-yl)chromane-7-sulfonamide]"
11,1.44 µM,"O=S(=O)(Nc1ncns1)c1ccc2c(c1)OCC[C@@H]2N1CCC(C(F)F)CC1 [Example 150, (S)-4-(4-(difluoromethyl)piperidin-1-yl)-N-(1,2,4-thiadiazol-5-yl)chromane-7-sulfonamide]"
12,5.5 µM,"O=S(=O)(Nc1ncns1)c1ccc2c(c1)OCC[C@@H]2N1CCC2(CC1)COC2 [Example 153, (S)-4-(2-oxa-7-azaspiro[3.5]nonan-7-yl)-N-(1,2,4-thiadiazol-5-yl)chromane-7-sulfonamide]"
13,4.52 µM,N#CC1CC12CCN([C@H]1CCOc3cc(S(=O)(=O)Nc4ncns4)ccc31)CC2 (stereo partly shown) [Example 154]
14,0.18 µM,Cn1nccc1[C@@H]1C[C@H](C(F)(F)F)CCN1[C@@H]1CCOc2cc(S(=O)(=O)Nc3nccs3)c(F)cc21 [Example 159]
15,0.442 µM,Cn1nccc1[C@H]1C[C@@H](C(F)(F)F)CCN1[C@@H]1CCOc2cc(S(=O)(=O)Nc3nccs3)c(F)cc21 [Example 160]
16,0.00853 µM,"CS(=O)(=O)[C@@H]1CCN([C@H]2CCOc3cc(S(=O)(=O)Nc4ncns4)ccc32)[C@H](c2ccc(F)cc2)C1 [Example 161, (S)-4-((2S,4R)-2-(4-fluorophenyl)-4-(methylsulfonyl)piperidin-1-yl)-N-(1,2,4-thiadiazol-5-yl)chroman-7-sulfonamide]"

row,Nav1.7 (LBA),Compound
1,3 µM,"CS(=O)(=O)[C@@H]1CCN([C@@H]2CCOc3cc(S(=O)(=O)Nc4ncns4)ccc32)[C@H](c2ccc(F)cc2)C1 [Example 162, (R)-4-((2S,4R)-2-(4-fluorophenyl)-4-(methylsulfonyl)piperidin-1-yl)-N-(1,2,4-thiadiazol-5-yl)chroman-7-sulfonamide]"
2,0.0223 µM,"CS(=O)(=O)[C@H]1CCN([C@H]2CCOc3cc(S(=O)(=O)Nc4ncns4)ccc32)[C@@H](c2ccc(F)cc2)C1 [Example 163, (S)-4-((2R,4S)-2-(4-fluorophenyl)-4-(methylsulfonyl)piperidin-1-yl)-N-(1,2,4-thiadiazol-5-yl)chroman-7-sulfonamide]"
3,0.208 µM,"CS(=O)(=O)[C@H]1CCN([C@@H]2CCOc3cc(S(=O)(=O)Nc4ncns4)ccc32)[C@@H](c2ccc(F)cc2)C1 [Example 164, (R)-4-((2R,4S)-2-(4-fluorophenyl)-4-(methylsulfonyl)piperidin-1-yl)-N-(1,2,4-thiadiazol-5-yl)chroman-7-sulfonamide]"
4,1.01 µM,"CS(=O)(=O)[C@@H]1CCN([C@@H]2CCOc3cc(S(=O)(=O)Nc4nccs4)c(F)cc32)[C@H](c2ccc(F)cc2)C1 [Example 165, (R)-6-fluoro-4-((2S,4R)-2-(4-fluorophenyl)-4-(methylsulfonyl)piperidin-1-yl)-N-(thiazol-2-yl)chroman-7-sulfonamide]"
5,0.00212 µM,"CS(=O)(=O)[C@@H]1CCN([C@H]2CCOc3cc(S(=O)(=O)Nc4nccs4)c(F)cc32)[C@H](c2ccc(F)cc2)C1 [Example 166, (S)-6-fluoro-4-((2S,4R)-2-(4-fluorophenyl)-4-(methylsulfonyl)piperidin-1-yl)-N-(thiazol-2-yl)chroman-7-sulfonamide]"
6,3 µM,"O=S(=O)(Nc1ncns1)c1ccc2c(c1)OCC[C@H]2N1CC[C@@](O)(C(F)(F)F)C[C@H]1c1ccc(F)cc1 [Example 167, (R)-4-((2S,4S)-2-(4-fluorophenyl)-4-hydroxy-4-(trifluoromethyl)piperidin-1-yl)-N-(1,2,4-thiadiazol-5-yl)chroman-7-sulfonamide]"
7,0.000878 µM,"O=S(=O)(Nc1ncns1)c1ccc2c(c1)OCC[C@@H]2N1CC[C@@](O)(C(F)(F)F)C[C@H]1c1ccc(F)cc1 [Example 168, (S)-4-((2S,4S)-2-(4-fluorophenyl)-4-hydroxy-4-(trifluoromethyl)piperidin-1-yl)-N-(1,2,4-thiadiazol-5-yl)chroman-7-sulfonamide]"
8,0.0682 µM,"O=S(=O)(Nc1ncns1)c1ccc2c(c1)OCC[C@@H]2N1CC[C@](O)(C(F)(F)F)C[C@@H]1c1ccc(F)cc1 [Example 169, (S)-4-((2R,4R)-2-(4-fluorophenyl)-4-hydroxy-4-(trifluoromethyl)piperidin-1-yl)-N-(1,2,4-thiadiazol-5-yl)chroman-7-sulfonamide]"
9,0.175 µM,"O=S(=O)(Nc1ncns1)c1ccc2c(c1)OCC[C@H]2N1CC[C@](O)(C(F)(F)F)C[C@@H]1c1ccc(F)cc1 [Example 170, (R)-4-((2R,4R)-2-(4-fluorophenyl)-4-hydroxy-4-(trifluoromethyl)piperidin-1-yl)-N-(1,2,4-thiadiazol-5-yl)chroman-7-sulfonamide]"
10,2.028 µM,"O=S(=O)(Nc1ncns1)c1cc2c(cc1F)[C@H](N1CC[C@@](O)(C(F)(F)F)C[C@H]1c1ccc(F)cc1)CCO2 [Example 171, (R)-6-fluoro-4-((2S,4S)-2-(4-fluorophenyl)-4-hydroxy-4-(trifluoromethyl)piperidin-1-yl)-N-(1,2,4-thiadiazol-5-yl)chroman-7-sulfonamide]"
11,0.000895 µM,"O=S(=O)(Nc1ncns1)c1ccc2c(c1)OCC[C@H]2N1CC[C@@H](OC(F)(F)F)C[C@H]1c1ccc(F)cc1 [Example 173, (R)-4-((2S,4R)-2-(4-fluorophenyl)-4-(trifluoromethoxy)piperidin-1-yl)-N-(1,2,4-thiadiazol-5-yl)chroman-7-sulfonamide]"
12,0.235 µM,"O=S(=O)(Nc1ncns1)c1ccc2c(c1)OCC[C@@H]2N1CC[C@@H](OC(F)(F)F)C[C@H]1c1ccc(F)cc1 [Example 174, (S)-4-((2S,4R)-2-(4-fluorophenyl)-4-(trifluoromethoxy)piperidin-1-yl)-N-(1,2,4-thiadiazol-5-yl)chroman-7-sulfonamide]"
13,0.00305 µM,"O=S(=O)(Nc1ncns1)c1ccc2c(c1)OCC[C@@H]2N1CC[C@H](OC(F)(F)F)C[C@@H]1c1ccc(F)cc1 [Example 175, (S)-4-((2R,4S)-2-(4-fluorophenyl)-4-(trifluoromethoxy)piperidin-1-yl)-N-(1,2,4-thiadiazol-5-yl)chroman-7-sulfonamide]"
14,0.0248 µM,"O=S(=O)(Nc1ncns1)c1ccc2c(c1)OCC[C@H]2N1CC[C@H](OC(F)(F)F)C[C@@H]1c1ccc(F)cc1 [Example 176, (R)-4-((2R,4S)-2-(4-fluorophenyl)-4-(trifluoromethoxy)piperidin-1-yl)-N-(1,2,4-thiadiazol-5-yl)chroman-7-sulfonamide]"
15,0.00584 µM,"N#C[C@@H]1CCN([C@H]2CCOc3cc(S(=O)(=O)Nc4ncns4)ccc32)[C@H](c2ccc(F)cc2)C1 [Example 177, (S)-4-((2S,4R)-4-cyano-2-(4-fluorophenyl)piperidin-1-yl)-N-(1,2,4-thiadiazol-5-yl)chroman-7-sulfonamide]"
